Columns and labels:
HeLa cells = test system: HeLa cells; set-up: method as in ref 38; settings: HeLa cells ref 38; cited from earlier work
DC-3F = test system: DC-3F; set-up: method as in ref 41; settings: cited from earlier work
DNA polymerase α = biological target: DNA polymerase α; set-up: method as in ref 40; settings: non-competitively ref 40; read-out: inhibition of DNA polymerase α activity; cited from earlier work
[1] = test system: DC-3F/9-OH-E (resistant 9-hydroellipticine subline); set-up: method as in ref 41; settings: cited from earlier work
DNA polymerase = biological target: DNA polymerase; set-up: method as in ref 40; settings: non-competitively; enzyme name lost ref 40; read-out: inhibition of second DNA polymerase activity; cited from earlier work
[2] = test system: Rauscher leukemic virus, Moloney murine sarcoma virus and avian myeloblastosis reverse transcriptase; settings: cited from earlier work
SV40 replication = test system: SV40 replication; set-up: method as in ref 38; settings: in HeLa cells ref 38; cited from earlier work
[3] = test system: lung bronchogenic MB-9812; assay: Cytotoxicity, MB-9812 growth; assay type: cell-based, human
From the text: (§1) CYTOTOXlCITY OF POLY(PHENOLIC)SULFONATES AND THEIR SODIUM SALTS IN L1210 LYMPHOID LEUKEMIA CELLS Fei Wang, Amy E. Warren, Cheryl R. Barnes and Iris H. Hall* Division of Medicinal Chemistry and Natural Products University of North Carolina Chapel Hill, N.C. […] Because ofthese properties it was surmised that these poly(phenolic)sulfonated compounds may have antineoplastic activity. METHODS Source of Compounds Test compounds were supplied by GeneLabs, Inc. [Redwood City, CA [Table 1]. Radioisotopes were obtained from New England Nuclear [Dupont, Boston, MA]. Substrates and co-factors were purchased om Sigma Chemical Co., [St Louis, MO]. […] Cell numbers were determined by the trypan blue exclusion technique. Solid tumor cytotoxicity was determined by Leibovitz et al. 's method utilizing crystal violeeOH and read at 562 nm (Molecular Devices). Values for cytotoxicity were expressed as EDs0 g/ml, i.e. the concentration ofthe compound inhibiting 50% ofcell growth. […] Incorporation of 4C- formate (53.0 mCi/mmol) into pyrimidines was determined by the method of Christopherson et al.[13]. […] DNA polymerase Ot activity was determined in cytoplasmic extracts isolated by Eichler et aL's method. […] Messenger-, ribosomal- and transfer-RNA polymerase enzymes were isolated with different concentrations of ammonium sulfate; individual RNA polymerase activities were determined using 3H -UTP 16,17]. […]

[4] = test system: murine L1210 lymphoid leukemia; assay type: cell-based, mouse; settings: concentration inhibiting 50% of cell growth
From the text: (§2) CYTOTOXlCITY OF POLY(PHENOLIC)SULFONATES AND THEIR SODIUM SALTS IN L1210 LYMPHOID LEUKEMIA CELLS Fei Wang, Amy E. Warren, Cheryl R. Barnes and Iris H. Hall* Division of Medicinal Chemistry and Natural Products University of North Carolina Chapel Hill, N.C. […] Because ofthese properties it was surmised that these poly(phenolic)sulfonated compounds may have antineoplastic activity. METHODS Source of Compounds Test compounds were supplied by GeneLabs, Inc. [Redwood City, CA [Table 1]. Radioisotopes were obtained from New England Nuclear [Dupont, Boston, MA]. Substrates and co-factors were purchased om Sigma Chemical Co., [St Louis, MO]. Pentosan sulfate and other antineoplastic standards were obtained from Sigma Chemical Co. Tumor lines were obtained from American Type Culture Collection [Rockville, MD]. 147 Vol. 5, No. 3, 1998 Cytotoxicity ofSodium Poly(Phenolic)Sulfonates in L1210 Lymphoid Leukemia Cells Table 1 Structures of Poly(phenolic)sulfonate Compounds O2R" n Compound R' R" n MW # G1-2041 H OH 8 1489.46 G1-2029 H OH 6 1117.09 G1-2030 H OH 4 744.73 GI-2021 CH3 ONa 8 1777.5 G1-2057 CH3 ONa 4 888.75 GI-2158 CH3 ONa 6 1333.13 GI-2063 OCH3 ONa 8 2001.65 G1-2042 OAc ONa 8 2017.73 Cytotoxicity Poly(phenolic)sulfonates were tested for cytotoxic activity by homogenizing drug in 0.05% Tween 80/H20 to give a mg/ml stock concentration. These solutions were sterilized by passing them through an acrodisc ([…]). The following cell lines were maintained by literature techniques: murine L1210 lymphoid leukemia, P-388 lymphocytic leukemia, rat UMR 106 osteosarcoma, human Tmolt3 acute lymphoblastic T cell leukemia, HUT-8 lymphoma, HeLa-S suspended cervical carcinoma, HeLa solid cervical carcinoma, KB epidermoid nasopharynx, A431 epidermoid carcinoma, colorectal adenocarcinoma SW480, HCT-8 ileocecal adenocarcinoma, lung bronchogenic MB-9812, A549 lung carcinoma, and glioma HS683. Geran et al.'s protocol was used to assess the cytotoxicity of the compounds and standards in each cell line. Cell numbers were determined by the trypan blue exclusion technique. Solid tumor cytotoxicity was determined by Leibovitz et al. 's method utilizing crystal violeeOH and read at 562 nm (Molecular Devices). Values for cytotoxicity were expressed as EDs0 g/ml, i.e. the concentration ofthe compound inhibiting 50% ofcell growth. A value of less than 4 µg/ml was required for significant activity ofgrowth inhibition. Incorporation Studies Incorporation of labeled precursors into 3H-DNA, 3H -RNA and 3H -protein for 10 L1210 cells was obtained. The concentration response for inhibition of DNA, RNA and protein synthesis of the compounds at 25, 50 and 100 l.tM was determined for 60 min incubations. Incorporation of 14C -glycine (53.0 mCi/mmol) into purines was obtained by the method of Cadman et al.[12]. Incorporation of 4C- formate (53.0 mCi/mmol) into pyrimidines was determined by the method of Christopherson et al.[13]. Enzyme Assays Inhibition of various enzyme activities was performed by first preparing the appropriate L1210 cell homogenates or subcellular fractions, then adding the drug to be tested during the enzyme assay. For the concentration response studies, inhibition of enzyme activity was determined at 25, 50 and 100 l.tM of compounds G1-2021, G1-2029, GI-2041 and G1-2063 after 60 min incubations. DNA polymerase Ot activity was determined in cytoplasmic extracts isolated by Eichler et aL's method. The DNA polymerase assay was described by Sedwick et al.[15] using 3H-TTP. Messenger-, ribosomal- and transfer-RNA polymerase enzymes were isolated with different concentrations of ammonium sulfate; individual RNA polymerase activities were determined using 3H -UTP 16,17]. Ribonucleoside reductase activity was measured using 4C -CDP with dithioerythritol. The deoxyribonucleotides 4C -dCDP were separated from the ribonucleotides by TLC on PEI plates. […]

[5] = test system: HeLa-S suspended cervical carcinoma; assay: Cytotoxicity, HeLa-S3 growth; assay type: cell-based, human; settings: concentration inhibiting 50% of cell growth
From the text: as §1

[6] = test system: human Tmolt3 acute lymphoblastic T cell leukemia; assay: Cytotoxicity, Tmolt3 growth; assay type: cell-based; settings: concentration inhibiting 50% of cell growth
From the text: as §1

[7] = test system: colorectal adenocarcinoma SW480; assay: Cytotoxicity, SW480 growth; assay type: cell-based, human
From the text: as §2, with “Geran et al.'s protocol was used to assess the cytotoxicity of the compounds and standards in each cell line.” left out, “A value of less than 4 µg/ml was required for significant activity ofgrowth inhibition. Incorporation Studies Incorporation of labeled precursors into 3H-DNA, 3H -RNA and 3H -protein for 10 L1210 cells was obtained. The concentration response for inhibition of DNA, RNA and protein synthesis of the compounds at 25, 50 and 100 l.tM was determined for 60 min incubations. Incorporation of 14C -glycine (53.0 mCi/mmol) into purines was obtained by the method of Cadman et al.[12].” left out, “Enzyme Assays Inhibition of various enzyme activities was performed by first preparing the appropriate L1210 cell homogenates or subcellular fractions, then adding the drug to be tested during the enzyme assay. For the concentration response studies, inhibition of enzyme activity was determined at 25, 50 and 100 l.tM of compounds G1-2021, G1-2029, GI-2041 and G1-2063 after 60 min incubations.” left out, “The DNA polymerase assay was described by Sedwick et al.[15] using 3H-TTP.” left out, “dithioerythritol.” for “dithioerythritol. The deoxyribonucleotides 4C -dCDP were separated from the ribonucleotides by TLC on PEI plates.”

[8] = test system: KB epidermoid nasopharynx; assay: Cytotoxicity, KB growth; assay type: cell-based, human; settings: concentration inhibiting 50% of cell growth
From the text: as §1, with “MO]. Pentosan sulfate and other antineoplastic standards were obtained from Sigma Chemical Co. Tumor lines were obtained from American Type Culture Collection [Rockville, MD].” for “MO].”, “16,17]. Ribonucleoside reductase activity was measured using 4C -CDP with dithioerythritol.” for “16,17].”

Compound: Cc1ccc(C(=O)Nc2ccc(S(=O)(=O)O)c3cc(S(=O)(=O)O)cc(S(=O)(=O)O)c23)cc1NC(=O)c1cccc(NC(=O)Nc2cccc(C(=O)Nc3cc(C(=O)Nc4ccc(S(=O)(=O)O)c5cc(S(=O)(=O)O)cc(S(=O)(=O)O)c45)ccc3C)c2)c1 [suramin]
- concentration required to cause death (HeLa cells): 250 µg/mL
- ED50 (DC-3F): 31 µM
- IC50 (DNA polymerase α): 8 µM
- ED50 [1]: 203 µM
- IC50 (DNA polymerase): 36 µM
- concentration inhibiting reverse transcriptase activities [2]: 0.1 µg/mL
- concentration required to inhibit SV40 replication (SV40 replication): 40 µM

Compound: pentosan sulfate [reference compound]
- growth suppression, in words [3]: suppressed moderately
- ED50 [4]: < 3 µg/mL
- ED50 [5]: < 3 µg/mL
- ED50 [6]: < 3 µg/mL

Compound: O=S(=O)(O)c1cc2c(O)c(c1)Cc1cc(S(=O)(=O)O)cc(c1O)Cc1cc(S(=O)(=O)O)cc(c1O)Cc1cc(S(=O)(=O)O)cc(c1O)C2 [GI-2030]
- activity, in words [7]: active
- ED50 ([7]; concentration inhibiting 50% of cell growth): less than 2 μg/ml

Compound: COc1c2cc(S(=O)(=O)[O-])cc1Cc1cc(S(=O)(=O)[O-])cc(c1OC)Cc1cc(S(=O)(=O)[O-])cc(c1OC)Cc1cc(S(=O)(=O)[O-])cc(c1OC)Cc1cc(S(=O)(=O)[O-])cc(c1OC)Cc1cc(S(=O)(=O)[O-])cc(c1OC)C2.[Na+].[Na+].[Na+].[Na+].[Na+].[Na+] [GI-2158]
- ED50 [8]: 3.24 µg/mL
